The text below walks through data of patent publication EP0239801B1, “Plant cells resistant to herbicidal glutamine synthetase inhibitors” (THE GENERAL HOSPITAL CORPORATION, priority 1986, dated 1987).

Read-outs that look alike come from different tables or passages of the source.

Assay [1] deals with pea leaf glutamine synthetase. The settings on record: cited from earlier work.
Assay [2] deals with variant PPT resistant alfalfa cell line. Put plainly: Growth of suspension cultures (packed cell volume), selected resistant cells. The format is cell-based. The method, then:
The amide nitrogen of glutamine provides the source of nitrogen for many biosynthetic reactions, indicating a central role for GS in nitrogen metabolism.
Selection is carried out in an appropriate culture medium by cultivating plant cells in the presence of stepwise increases of the herbicidal GS-inhibitor in the medium. After a given period of time has elapsed, such as, for example, a few weeks to several months, it is possible to select a cell population which is several-fold more resistant to the herbicidal GS-inhibitor than the original plant cells. For example, when the cells are alfalfa and the inhibitor is PPT, it has been possible to obtain a PPT-resistant alfalfa cell line after one year of stepwise PPT increases, which line was 20-fold more resistant to PPT than the original line. […] This was never possible by plating wild-type cells.
An alfalfa cell line which is able to grow in the presence of 3 mM L-phosphinothricin in the culture medium was selected. Alfalfa was chosen since it is one of the model plants in which the regeneration of a whole plant from single isolated cells or protoplasts can be readily achieved.
The selection of the phosphinothricin resistant alfalfa line was done by stepwise increase of the inhibitor concentration in the liquid culture medium. […]

The subject of a further assay is GS. Put plainly: GS activity of cell extracts in the presence of various amounts of phosphinothricin. The following applies: both cell types. It counts as biochemical, alfalfa. The method, then: When the protein patterns of crude cell extracts of the susceptible and resistant cell lines were compared by SDS-polyacrylamide gel electrophoresis, the overproduction of a polypeptide in the molecular weight range 40-42 KD could be observed in the PPT-resistant cell line. Purified GS of alfalfa has the same molecular weight. The enzyme activity of the cell extracts was determined in parallel. The specific GS-activity in the resistant cells was 5-10 fold higher than in wild-type cells. The specific activity of GS in the PPT-resistant cell lines is in the same order of magnitude as in root nodule tissue of alfalfa, which, as all nodule tissues of efficiently dinitrogen fixing legumes, has high GS-activity.

For assay [3], the target named is glutamine synthetase from E. coli (Escherichia coli, UniProt P0A9C5). The settings on record: competitive inhibitor; cited from earlier work.
In a further assay the test system is dicotyledonous weeds. The settings on record: field trials in West Germany, Spain, South Africa, U.S.A. and Japan; Schwerdtle 1981; cited from earlier work.
In the next assay the test system is monocotyledonous weeds. The following applies: field trials; Schwerdtle 1981; cited from earlier work.

Sequence of glutamine synthetase from E. coli (P0A9C5 2-469): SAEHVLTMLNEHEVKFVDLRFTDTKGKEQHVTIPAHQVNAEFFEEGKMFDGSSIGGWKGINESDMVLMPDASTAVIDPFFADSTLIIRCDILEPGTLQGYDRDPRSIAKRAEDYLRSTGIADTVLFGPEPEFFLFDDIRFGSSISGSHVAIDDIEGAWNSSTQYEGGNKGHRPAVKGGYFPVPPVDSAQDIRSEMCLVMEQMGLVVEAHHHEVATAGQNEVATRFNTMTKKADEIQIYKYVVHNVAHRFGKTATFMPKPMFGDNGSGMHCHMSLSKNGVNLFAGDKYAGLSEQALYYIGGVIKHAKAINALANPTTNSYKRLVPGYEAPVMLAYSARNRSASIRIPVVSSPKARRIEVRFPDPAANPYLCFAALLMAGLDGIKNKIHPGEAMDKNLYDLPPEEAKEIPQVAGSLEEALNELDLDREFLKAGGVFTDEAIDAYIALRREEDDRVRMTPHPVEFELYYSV

In the case of `CS(=N)(=O)CCC(N)C(=O)O` (stereo not shown) [MSO, methionine sulfoximime], the Ki in assay [1] (read-out: Ki value) was 160 µM.

`CP(=O)(O)CC[C@H](N)C(=O)O` [L-phosphinothricin]: the “concentration in the culture medium in the presence of which the selected cell line is able to grow” value in assay [2] is reported as 3 mM.

Regarding `CP(=O)(O)CC[C@H](N)C(=O)O` [PPT, phosphinothricin], the “enzyme inhibition in wild-type versus resistant cell extracts” value with GS is given as “same degree of enzyme inhibition”. Also, the Ki in assay [3] is 5.9 µM; in assay [1] (mixed competitive inhibitor, Leason et al. 1982, read-out: apparent Ki value) it was 73 µM. Further, the results for the weed control result in the assay on dicotyledonous weeds and with monocotyledonous weeds were “well controlled” and “somewhat higher quantities were needed for good control”, respectively.
